From PubChem BioAssay AID256 (DTP/NCI, 2004) come the findings set out here.

Several values for one entry are separate records, joined by “and”; a condition that tells them apart may be missing. Equal entries are not always repeated. Inconclusive results and toxic doses are left out.

This assay concerns CD2F1 mice, L1210 leukemia ip, survival T/C. The assay is described as follows: NCI In Vivo Anticancer Drug Screen. Data for tumor model L1210 Leukemia (intraperitoneal) in CD2F1 (CDF1) mice. Conditions: higher = longer survival. The method in brief:
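Antitumor effect is scored in animals hosting a serially transplanted tumor. Values compare compound-dosed animals against vehicle-only controls as a simple quotient.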

Setting [1] is: endpoint: mean survival time, dose: 25.0 mg/kg/injection, schedule: Q04DX002 (ip), vehicle: saline with Tween-80.
Where [2] appears, read: endpoint: mean survival time, dose: 50.0 mg/kg/injection, schedule: Q04DX002 (ip), vehicle: saline with Tween-80.
Where [3] appears, read: endpoint: mean survival time, dose: 100.0 mg/kg/injection, schedule: Q04DX002 (ip), vehicle: saline with Tween-80.
Where [4] appears, read: endpoint: mean survival time, dose: 100.0 mg/kg/injection, schedule: Q01DX001 (ip), vehicle: saline with Tween-80.
[5] abbreviates: endpoint: mean survival time, dose: 200.0 mg/kg/injection, schedule: Q01DX001 (ip), vehicle: saline with Tween-80.
The mark [6] stands for this setting: endpoint: mean survival time, dose: 400.0 mg/kg/injection, schedule: Q01DX001 (ip), vehicle: saline with Tween-80.
Setting [7] is: endpoint: mean survival time, dose: 100.0 mg/kg/injection, schedule: Q04DX003 (ip), vehicle: saline with Tween-80.
Where [8] appears, read: endpoint: mean survival time, dose: 200.0 mg/kg/injection, schedule: Q04DX003 (ip), vehicle: saline with Tween-80.
[9] abbreviates: endpoint: mean survival time, dose: 200.0 mg/kg/injection, schedule: Q01DX001 (ip), vehicle: saline.
Setting [10] is: endpoint: mean survival time, dose: 400.0 mg/kg/injection, schedule: Q01DX001 (ip), vehicle: saline.
Setting [11] is: endpoint: mean survival time, dose: 400.0 mg/kg/injection, schedule: Q04DX003 (ip), vehicle: saline with Tween-80.

Regarding `CC(=O)C(CNCC(=O)O)(CNCC(=O)O)C(C)=O`, the T/C is 90 % of control under setting [1], 94 % of control under setting [2] and 94 % of control under setting [3].
In the case of `COC(=C\c1ccccc1)/C(=N/Nc1ccc([N+](=O)[O-])cc1[N+](=O)[O-])c1ccccc1`, the T/C reads like this: under setting [4], 101 % of control; under setting [5], 109 % of control; under setting [6], 109 % of control.
For the compound `CCNc1ncc2ccccc2c1-c1ccc(NCCCl)cc1`, the T/C is 98 % of control (endpoint: mean survival time, dose: 25.0 mg/kg/injection, schedule: Q04DX003 (ip), vehicle: other); 95 % of control (endpoint: mean survival time, dose: 50.0 mg/kg/injection, schedule: Q04DX003 (ip), vehicle: other); 87 % of control (endpoint: mean survival time, dose: 100.0 mg/kg/injection, schedule: Q04DX003 (ip), vehicle: other); 105 % of control (endpoint: mean survival time, dose: 200.0 mg/kg/injection, schedule: Q04DX003 (ip), vehicle: other); 90 % of control (endpoint: mean survival time, dose: 400.0 mg/kg/injection, schedule: Q04DX003 (ip), vehicle: other).
As for `CCOC(=O)COC(CN)C(Cl)(Cl)Cl` (stereo not drawn), the T/C was 101 % of control under setting [7] and 97 % of control under setting [8].
In the case of `CN(C)CCCNC/C=C\CNCCCN(C)C`, the T/C reads like this: (endpoint: mean survival time, dose: 100.0 mg/kg/injection, schedule: Q04DX003 (ip), vehicle: saline) 101 % of control; (endpoint: mean survival time, dose: 200.0 mg/kg/injection, schedule: Q04DX003 (ip), vehicle: saline) 101 % of control.
Regarding `Nc1ncnc2c1ncn2CCC(CO)CO`, the T/C by setting is: under setting [9], 102 % of control; under setting [10], 107 % of control.
For `CCCCOP(=O)(N=C=S)OCCCC`, the T/C under setting [1] was 94 % of control; the T/C under setting [2] is 102 % of control; the T/C under setting [3] is 90 % of control and 96 % of control.
For the compound `CCc1nc(-c2ccccc2)c(-c2ccccc2)[nH]1`, the T/C under setting [7] is 90 % of control, the T/C under setting [8] was 92 % of control and the T/C under setting [11] is 90 % of control.
On to `COc1cc(OC)c(/C=C/c2ccc3ccccc3[n+]2C)c(OC)c1`, for which the T/C runs as follows: (endpoint: mean survival time, dose: 0.31 mg/kg/injection, schedule: Q01DX009 (ip), vehicle: saline) 103 % of control; (endpoint: mean survival time, dose: 0.62 mg/kg/injection, schedule: Q01DX009 (ip), vehicle: saline) 114 % of control; (endpoint: mean survival time, dose: 1.25 mg/kg/injection, schedule: Q01DX009 (ip), vehicle: saline) 121 % of control.
Consider `COc1ccccc1N=Nc1c(O)n(-c2ccccc2Cl)c(=S)n(-c2ccccc2OC)c1=O`, for which the T/C reads like this: under setting [1], 105 % of control; under setting [2], 90 % of control; under setting [3], 94 % of control.
On to `Cc1c2ccccc2c(CN(C)CC(=O)O)c2ccccc12`, for which the T/C is, setting by setting: under setting [7], 102 % of control; under setting [8], 102 % of control.
For `CCCCCC(C)(C)N=C=S`, the T/C runs as follows: under setting [7], 100 % of control; under setting [8], 96 % of control.
Consider `[Cl][Pt+2][Cl].[NH-]C(CO)C([NH-])CO` (stereo not drawn), for which the T/C runs as follows: (endpoint: median survival time, dose: 1.25 mg/kg/injection, schedule: Q04DX003 (ip), vehicle: water) 102 % of control; (endpoint: median survival time, dose: 2.5 mg/kg/injection, schedule: Q04DX003 (ip), vehicle: water) 102 % of control; (endpoint: median survival time, dose: 5.0 mg/kg/injection, schedule: Q04DX003 (ip), vehicle: water) 115 % of control; (endpoint: median survival time, dose: 12.5 mg/kg/injection, schedule: Q04DX003 (ip), vehicle: distilled water + Tween-80) 156 % of control; (endpoint: median survival time, dose: 20.0 mg/kg/injection, schedule: Q04DX003 (ip), vehicle: water) 93 % of control.
For the compound `CC1=C(/C=C/C(C)=C/C=C/C(C)=C/C(=O)O)C(C)(C)CCC1`, the T/C was 100 % of control (endpoint: mean survival time, dose: 8.0 mg/kg/injection, schedule: Q01DX009 (ip), vehicle: saline with Tween-80); 95 % of control (endpoint: mean survival time, dose: 16.0 mg/kg/injection, schedule: Q01DX009 (ip), vehicle: saline with Tween-80); 95 % of control (endpoint: mean survival time, dose: 32.0 mg/kg/injection, schedule: Q01DX009 (ip), vehicle: saline with Tween-80); 97 % of control (endpoint: mean survival time, dose: 64.0 mg/kg/injection, schedule: Q01DX009 (ip), vehicle: saline with Tween-80); 105 % of control under setting [7]; 87 % of control (endpoint: mean survival time, dose: 128.0 mg/kg/injection, schedule: Q01DX009 (ip), vehicle: saline with Tween-80). Further, the T/C under setting [8] was 100 % of control and the T/C under setting [11] was 97 % of control.
As for `CC(=O)Nc1cccc(C(F)(F)F)c1`, the T/C runs as follows: (endpoint: mean survival time, dose: 50.0 mg/kg/injection, schedule: Q01DX009 (ip), vehicle: Klucel (hydroxypropylcellulose) (HPC)) 100 % of control; (endpoint: mean survival time, dose: 100.0 mg/kg/injection, schedule: Q01DX009 (ip), vehicle: Klucel (hydroxypropylcellulose) (HPC)) 93 % of control; (endpoint: mean survival time, dose: 200.0 mg/kg/injection, schedule: Q01DX009 (ip), vehicle: Klucel (hydroxypropylcellulose) (HPC)) 100 % of control.
Turning to `CCC(C)CCCOC(=O)c1c(Cl)c(Cl)c(Cl)c(Cl)c1C(=O)O` (stereo not drawn), the T/C (endpoint: mean survival time, dose: 100.0 mg/kg/injection, schedule: Q01DX001 (ip), vehicle: saline) was 106 % of control; the T/C under setting [9] was 112 % of control; the T/C under setting [10] is 102 % of control.
As for `O=S(=O)(O)/[N+]([O-])=N/O`, the T/C runs as follows: (endpoint: mean survival time, dose: 100.0 mg/kg/injection, schedule: Q01DX009 (ip), vehicle: saline sonified) 103 % of control; (endpoint: mean survival time, dose: 200.0 mg/kg/injection, schedule: Q01DX009 (ip), vehicle: saline sonified) 95 % of control; (endpoint: mean survival time, dose: 400.0 mg/kg/injection, schedule: Q01DX009 (ip), vehicle: saline sonified) 101 % of control.
Regarding `CC(C)CCC(C)C1CCC2C3CC([N+](=O)[O-])=C4CC(OC(=O)c5ccccc5)CCC4(C)C3CCC12C` (stereo not drawn), the T/C is 102 % of control under setting [7], 92 % of control under setting [8] and 92 % of control under setting [11].
`O=C1N(CCc2ccccc2)CC2C(c3ccccc3)NNC12O` (stereo not drawn): the T/C under setting [4] was 96 % of control, the T/C under setting [5] is 87 % of control and the T/C under setting [6] was 87 % of control.
Turning to `Nc1cc(Cl)c(Cl)cc1S(=O)(=O)NO`, the T/C was 95 % of control under setting [7] and 89 % of control under setting [11].
